Results as given in patent US9163011B2, “Oxazine derivatives and their use in the treatment of disease” (NOVARTIS AG, priority 2011, dated 2015).
pIC50: −log10 of the molar value.

Columns and labels:
[1] = tested on: Soluble Abeta40 levels in the rat brain and CSF; test: Test 5: In Vivo Inhibitory Activity (Abeta lowering in rat brain and CSF); details: male Sprague-Dawley rats, oral gavage, 10 micromoles per kilogram, 4 hours prior to sacrifice; n.s.=not statistically significant
Description: Test 5: In Vivo Inhibitory Activity of Example Compounds
Male Sprague-Dawley rats, 220-280 g weight, (Charles River, France) were dosed by oral gavage with vehicle alone (0.1% Tween80, 0.5% methylcellulose in water) or with compound suspended in vehicle at a dose of 10 micromoles compound per kilogram body weight, 4 hours prior to sacrifice. The 4 hour timepoint was selected in order to compare the activity of compounds that have sufficient pharmacokinetic and biodistribution properties to reduce total brain Abeta within approximately three half-lives of the rat brain Abeta40 peptide.
Immediately prior to sacrifice, anaesthetized rat (spontaneous inhalation, 2-5% Isoflurane and air) were fixed in a stereotaxic apparatus on a raised platform, with anesthesia maintained though a nose cone. The angle of the head was tilted downward, perpendicular to the body, and a hypodermic needle lowered through the skin behind the occipital ridge, into the Cisterna magna. Cerebrospinal fluid (CSF) was withdrawn (˜50-100 μL), dispensed into tubes (protein Lo-bind Eppendorf tubes for Abeta40 analysis, normal Eppendorph tubes for compound analysis), frozen on dry ice and stored at −80° C. until analysis. Rats were then immediately decapitated under anesthesia, trunk blood collected for analysis of compound levels and the brain retrieved. One half-forebrain was dissected by removing the cerebellum and olfactory bulbs, frozen in three pieces on a metal plate pre-cooled on frozen CO2 and stored in tubes at −80° C. until analysis for Abeta40. For the other half-brain, olfactory bulbs were discarded and a sagittal slice taken from the medial aspect, weighing ˜200-400 mg, placed in glass HPLC tubes and frozen on dry ice until analysis for compound levels.
Soluble Abeta40 levels in the rat brain and CSF were quantified using a Meso Scale Discovery (MSD) 96-well MULTI-ARRAY human/rodent (4G8) Abeta40 Ultrasensitive Assay (#K110FTE-3, Meso Scale Discovery, Gaithersburg, USA). Forebrain sample homogenates were prepared by sonication in 9 volumes (w/v) of ice cold TBA. Fifty μL of 2% TX-100 in TBS-complete was added to 50 μL aliquots of the homogenate to reach a final concentration of 1% TX-100 in a 1:20 dilution. Samples were incubated on ice for 15 min interrupted with 3 short vortexing steps, then centrifuged (100 000×g, 4° C., 15 min), and 50 μL of supernatant collected. This was further diluted 1:5 with 3% Blocker A solution from the MSD kit to a final dilution of 1:100 and applied to the MSD plate. CSF samples containing blood were excluded. All other CSF samples were diluted with 1% Blocker A solution (from manufacturers kit) to reach a 1:20 CSF dilution. Calibration curves were prepared in 1% Blocker A solution spiked with synthetic Abeta1-40 peptide. Samples and calibration standards were applied in duplicate at a volume of 25 μL per well. Abeta40 concentrations of samples were estimated from the standard curve using SOFTmax PRO4.0.

Human BACE-2 = Human BACE-2 (Homo sapiens (Human), UniProt Q9Y5Z0); test: Test 2: Inhibition of Human BACE-2; assay type: biochemical; details: recombinant BACE-2, pH 4.5, 1 hour preincubation
Human BACE-2, sequence (Q9Y5Z0 63-473): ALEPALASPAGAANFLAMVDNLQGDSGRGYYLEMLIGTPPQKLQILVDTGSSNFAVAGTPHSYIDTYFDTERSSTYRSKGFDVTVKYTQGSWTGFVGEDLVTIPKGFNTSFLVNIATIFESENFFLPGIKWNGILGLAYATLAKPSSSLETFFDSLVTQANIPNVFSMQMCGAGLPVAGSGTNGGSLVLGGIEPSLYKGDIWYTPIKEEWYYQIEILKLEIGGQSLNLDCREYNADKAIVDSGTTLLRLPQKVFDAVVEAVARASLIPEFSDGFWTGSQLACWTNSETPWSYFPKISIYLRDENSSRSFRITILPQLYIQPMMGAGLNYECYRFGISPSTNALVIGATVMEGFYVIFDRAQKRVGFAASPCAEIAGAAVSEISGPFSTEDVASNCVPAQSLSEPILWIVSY
Description: Test 2: Inhibition of Human BACE-2
(§1) Recombinant BACE-2 (extracellular domain, expressed in baculovirus and purified using standard methods) at 0.1 to 1 nM concentrations is incubated with the test compound at various concentrations for 1 hour at room temperature in 100 mM acetate buffer, pH 4.5, containing 0.1% CHAPS. Activity was measured using a final concentration of 3 μM of the fluorescence-quenched substrate Q-C(HSO3)-Ile-Asp-Leu-Ala-Val-Leu-Asp-HN—CH2—CH2-Mca, where Q=2-nitro-5-amino benzoic acid and Mca=7-methoxy-4-coumarinyl acetic acid. Catalytic turnover was monitored in a Spectramax Gemini fluorescence plate reader (Molecular Devices) in black 96-well microplates using excitation/emission wavelength of 325 nm and 400 nm, respectively. Fluorescence increase was followed for 15 min, in 1 minute's intervals. The fluorescence/time slopes were calculated from duplicate wells and from wells without inhibitor and the IC50 values were calculated using a logistic 4-parameter model.

Human BACE-1 = Human BACE-1 (Homo sapiens (Human), UniProt P56817); test: Test 1: Inhibition of Human BACE-1; assay type: biochemical; details: recombinant BACE-1, pH 4.5, 1 hour preincubation
Human BACE-1, sequence (P56817 46-457): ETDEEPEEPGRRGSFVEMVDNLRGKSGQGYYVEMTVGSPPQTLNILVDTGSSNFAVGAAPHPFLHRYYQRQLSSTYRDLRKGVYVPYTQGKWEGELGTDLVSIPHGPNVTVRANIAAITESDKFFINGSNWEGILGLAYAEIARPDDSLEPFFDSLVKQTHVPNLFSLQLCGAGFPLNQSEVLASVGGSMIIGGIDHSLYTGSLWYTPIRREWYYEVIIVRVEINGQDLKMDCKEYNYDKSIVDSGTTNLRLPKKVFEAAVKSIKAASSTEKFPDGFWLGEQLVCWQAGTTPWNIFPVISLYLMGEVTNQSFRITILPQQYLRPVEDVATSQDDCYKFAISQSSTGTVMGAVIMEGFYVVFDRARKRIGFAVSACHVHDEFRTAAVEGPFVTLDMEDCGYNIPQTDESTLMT
Description: Test 1: Inhibition of Human BACE-1
as §1, with “BACE-1” for “BACE-2”

[2] = Test 4: Inhibition of Cellular Release of Amyloid Peptide 1-40; assay type: cell-based, Chinese hamster; details: Cricetulus griseus; CHO cells with human APP, 24 hours with compound; read-out: Test 4 Amyloid-β1-40 release IC50
Description: The cells are plated at a density of 8000 cells/well into 96-well microtiter plates and cultivated for 24 hours in DMEM cell culture medium containing 10% FCS. The test compound is added to the cells at various concentrations, and the cells are cultivated for 24 hours in the presence of the test compound. […] The potency of the compound is calculated from the percentage of inhibition of amyloid peptide release as a function of the test compound concentration.

Structure (SMILES)	Abeta lowering in rat CSF [1]	Abeta lowering in rat forebrain [1]	pIC50 (Human BACE-2)	pIC50 (Human BACE-1)	pIC50 [2]
CC1(c2cc(NC(=O)c3ncc(C#N)cc3Cl)ccc2F)N=C(N)OCC1(F)F (stereo not drawn) [39 WO 2011/069934 A1, reference compound]	−8.2% (n.s.)	−1.4% (n.s.)			
C[C@]1(c2nc(NC(=O)c3ncc(C#N)cc3Cl)ccc2F)N=C(N)OCC1(F)F [Example 2, 3-Chloro-5-cyano-pyridine-2-carboxylic acid [6-((R)-2-amino-5,5-difluoro-4-methyl-5,6-dihydro-4H-[1,3]oxazin-4-yl)-5-fluoro-pyridin-2-yl]-amide]	−70.7%	−67.1%	7.15	7.92	8.10
COCC[C@]1(c2nc(NC(=O)c3ncc(C(F)(F)F)cc3Cl)ccc2F)N=C(N)OCC1(F)F [Example 6, 3-Chloro-5-trifluoromethyl-pyridine-2-carboxylic acid {6-[(R)-2-amino-5,5-difluoro-4-(2-methoxy-ethyl)-5,6-dihydro-4H-[1,3]oxazin-4-yl]-5-fluoro-pyridin-2-yl}-amide]			5.18	6.19	6.42
C[C@]1(c2nc(NC(=O)c3ncc(C(F)(F)F)cc3Cl)ccc2F)N=C(N)OCC1(F)F [Example 7, 3-Chloro-5-trifluoromethyl-pyridine-2-carboxylic acid [6-((R)-2-amino-5,5-difluoro-4-methyl-5,6-dihydro-4H-[1,3]oxazin-4-yl)-5-fluoro-pyridin-2-yl]-amide]	−67.9%	−63.6%			
CC1(c2cc(NC(=O)c3nn(C(F)F)cc3Cl)ccc2F)N=C(N)OCC1(F)F (stereo not drawn) [71 WO 2011/069934 A1, reference compound]	−30.4%	5.6% (n.s.)			
CC1(C)OC(N)=N[C@](C)(c2nc(NC(=O)c3ncc(C#N)cc3Cl)ccc2F)C1(F)F [Example 3, 3-Chloro-5-cyano-pyridine-2-carboxylic acid [6-((R)-2-amino-5,5-difluoro-4,6,6-trimethyl-5,6-dihydro-4H-[1,3]oxazin-4-yl)-5-fluoro-pyridin-2-yl]-amide]	−35.3%	−20.0%			
C[C@]1(c2nc(NC(=O)c3ncc(OCF)cc3Cl)ccc2F)N=C(N)OCC1(F)F [Example 26, 3-Chloro-5-fluoromethoxy-pyridine-2-carboxylic acid [6-((R)-2-amino-5,5-difluoro-4-methyl-5,6-dihydro-4H-[1,3]oxazin-4-yl)-5-fluoro-pyridin-2-yl]-amide]			7.57	6.96	7.24
COCC#Cc1cnc(C(=O)Nc2ccc(F)c([C@@]3(C)N=C(N)OCC3(F)F)n2)c(Cl)c1 [Example 21, 3-Chloro-5-(3-methoxy-prop-1-ynyl)pyridine-2-carboxylic acid [6-((R)-2-amino-5,5-difluoro-4-methyl-5,6-dihydro-4H-[1,3]oxazin-4-yl)-5-fluoro-pyridin-2-yl]-amide]			6.08	7.08	7.09
C[C@]1(c2nc(NC(=O)c3ncc(C(F)F)nc3N)ccc2F)N=C(N)OCC1(F)F [Example 22, 3-Amino-5-difluoromethyl-pyrazine-2-carboxylic acid [6-((R)-2-amino-5,5-difluoro-4-methyl-5,6-dihydro-4H-[1,3]oxazin-4-yl)-5-fluoro-pyridin-2-yl]-amide]			6.24	6.72	7.22
C[C@]1(c2nc(NC(=O)c3ncc(Cl)cc3Cl)ccc2F)N=C(N)OCC1(F)F [Example 9, 3,5-Dichloro-pyridine-2-carboxylic acid [6-((R)-2-amino-5,5-difluoro-4-methyl-5,6-dihydro-4H-[1,3]oxazin-4-yl)-5-fluoro-pyridin-2-yl]-amide]			8.40	7.74	7.92
CC1(C)OC(N)=NC(C)(c2cc(NC(=O)c3ncc(C#N)cc3Cl)ccc2F)C1(F)F (stereo not drawn) [22 WO 2011/069934 A1, reference compound]	−17.9%	−7.8% (n.s.)			
C[C@]1(c2nc(NC(=O)c3ncc(C#CCO)cc3N)ccc2F)N=C(N)OCC1(F)F [Example 17, 3-Amino-5-(3-hydroxy-prop-1-ynyl)-pyridine-2-carboxylic acid [6-((R)-2-amino-5,5-difluoro-4-methyl-5,6-dihydro-4H-[1,3]oxazin-4-yl)-5-fluoro-pyridin-2-yl]-amide]			5.09	6.62	7.21
C[C@]1(c2nc(NC(=O)c3nccnc3N)ccc2F)N=C(N)OCC1(F)F [Example 31, 3-Amino-pyrazine-2-carboxylic acid [6-((R)-2-amino-5,5-difluoro-4-methyl-5,6-dihydro-4H-[1,3]oxazin-4-yl)-5-fluoro-pyridin-2-yl]-amide]			6.31	6.27	6.74
C[C@]1(c2nc(NC(=O)c3ncccc3Cl)ccc2F)N=C(N)OCC1(F)F [Example 20, 3-Chloro-pyridine-2-carboxylic acid [6-((R)-2-amino-5,5-difluoro-4-methyl-5,6-dihydro-4H-[1,3]oxazin-4-yl)-5-fluoro-pyridin-2-yl]-amide]			7.02	6.44	7.06
C[C@]1(c2nc(NC(=O)c3ncc(C(F)(F)F)nc3N)ccc2F)N=C(N)OCC1(F)F [Example 8, 3-Amino-5-trifluoromethyl-pyrazine-2-carboxylic acid [6-((R)-2-amino-5,5-difluoro-4-methyl-5,6-dihydro-4H-[1,3]oxazin-4-yl)-5-fluoro-pyridin-2-yl]-amide]			5.85	6.80	6.85
C[C@]1(c2nc(NC(=O)c3ncc(C(F)F)cc3N)ccc2F)N=C(N)OCC1(F)F [Example 33, 3-Amino-5-difluoromethyl-pyridine-2-carboxylic acid [6-((R)-2-amino-5,5-difluoro-4-methyl-5,6-dihydro-4H-[1,3]oxazin-4-yl)-5-fluoro-pyridin-2-yl]-amide]			6.59	6.85	7.18
C[C@]1(c2nc(NC(=O)c3ncc(OCF)nc3N)ccc2F)N=C(N)OCC1(F)F [Example 15, 3-Amino-5-fluoromethoxy-pyrazine-2-carboxylic acid [6-((R)-2-amino-5,5-difluoro-4-methyl-5,6-dihydro-4H-[1,3]oxazin-4-yl)-5-fluoro-pyridin-2-yl]-amide]			6.14	6.96	7.52
